The values that follow come from patent publication EP4741392A1, “1H-PYRAZOLO[4,3-C]PYRIDINE COMPOUND, AND COMPOSITION THEREOF AND USE THEREOF” (Shenzhen TargetRx Co., Ltd., priority 2023, dated 2025).

The target of one experiment is T1, BTK C481S (Homo sapiens, UniProt Q06187, C481S).
T1 construct: purchased Carna 08-547
In words: Kinase activity inhibition assay (HTRF TK Kit). It is filed as biochemical. The text has this: (§1) In this assay, the HTRF TK Kit (Catalog No. 62TK0PEC) provided by Cisbio was used to detect the inhibitory activity of compounds on BTK kinase, BTK T474I kinase and BTK C481 S kinase and the selectivity of compounds relative to EGFR, ITK and TEC kinases.
(§2) Reagents and consumables: BTK kinase (Invitrogen, Catalog No. PV3587), BTK C481S (Carna, Product No. 08-547), BTK T474I(SignalChem Product No. B10-12HH), ITK (Cama, Product No. 08-181), EGFR (Cama, Product No. 08-115), TEC (Carna, Product No. 08-182), HTRF-TK kit (Cisbio, Product No. 62TK0PEC), MgCl2 (Sigma, Product No. M1028), MnCl2 (Sigma, Product No. M1787), DTT (Sigma, Product No. D0632), ATP (Sigma, Product No. A7699-1g), DMSO (Sigma, Product No. D2650), 384-well plate (PE, Product No. 6008280).
(§3) The entire operation steps were carried out on ice, and the total reaction volume was 10µL. A compound (4µL), substrate and ATP (4µL), and kinase (2µL) were added in sequence to a 384-well plate, and the plate was shaken for 30 seconds. The mixture was reacted at room temperature for an appropriate time, and then the detection reagent was added. The resulting mixture was reacted at room temperature for 1 hour, and then the plate was assayed with a microplate reader. The specific steps were as follows: • a) a 1 × kinase buffer solution required for the kinase assay was calculated according to the amount of the test compound, and prepared as needed; • b) 2.5 × working concentration of a compound was prepared, 100-fold gradient concentration solutions of a compound were diluted by 40 × to the desired concentration, respectively, mixed well, and added to each well at 4 µL per well; • c) 5 × working concentration of the substrate and ATP were prepared, mixed in a ratio of 1:1 before being added to the 384-well plate, and added to each well at 4 µL per well; • d) 5 × working concentration of a kinase was prepared, 2 µL of which was added to each well; • e) the plate was shaken on a microplate shaker for 30 seconds, sealed with a sealing membrane, and the mixture was reacted at room temperature for an appropriate time; • f) 4 × working concentration of streptavidin XL-665 and TK antibody-cryptate compound were prepared, mixed in a ratio of 1:1 before being added to the 384-well plate, and added to each well at 10 µL per well; • g) the mixture was reacted at room temperature for 1 hour, and then the plate was read; • h) the wells with only substrate, ATP and 1% DMSO added but no kinase were blank control wells, and the wells with only substrate, ATP, 1% DMSO and kinase were positive control wells.
(§4) Readings: The values of 620 nm (cryptate) and 665 nm (XL665) were read with a BioTek Synerg Neo2 microplate reader, the ratio of 665/620 for each well was calculated, and the data were exported.
(§5) Data analysis: IC50 was calculated using GraphPad Prism 7.0 software.
(§6) The IC50 (half-maximal inhibitory concentration) of the compound was obtained using the following nonlinear fitting formula: Y = Bottom + (Top−Bottom)/(1+10^(∧)((LogIC50−X)*HillSlope)) [formula] • X: Log value of the compound concentration • Y: Inhibition rate (% inhibition) • Top: Maximum response • Bottom: Baseline response • HillSlope: Slope of the curve
(§7) The formula for calculating kinase inhibition rate (inhibition rate %) was: [formula]

Another experiment deals with T2, BTK kinase (Homo sapiens, UniProt Q06187).
T2 construct: purchased Invitrogen PV3587
In words: Kinase activity inhibition assay (HTRF TK Kit). It is filed as biochemical.
From the text: as §1, §2, §3, §4, §5, §6, §7
(In general: TR-FRET usually uses a lanthanide donor and a delayed reading to cut background.)

For the next experiment, the target named is T3, BTK T474I (Homo sapiens, UniProt Q06187, T474I).
T3 construct: purchased SignalChem B10-12HH
The experiment in a line: Kinase activity inhibition assay (HTRF TK Kit). It is filed as biochemical.
From the text: as §1, §2, §3, §4, §5, §6, §7

Another experiment has as its system Ramos cells with BTK WT. In words: Phosphor-BTK(Y223) assay, suspended cells. Format: cell-based. Particulars: phosphorylated BTK Y223, Ramos cells with BTK WT. Summed up: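 Ramos BTK WT cells (2.5 k/well) were treated with compound dilutions for 2 h at 37 °C, then 5 mM Na3VO4 for 3 h. Lysates were read by HTRF p-BTK(Y223) cryptate/d2 antibodies overnight at RT (665/620 ratio). IC50 came from a four-parameter fit of % inhibition versus blank and positive-control wells.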

T2 sequence (Q06187 whole entry): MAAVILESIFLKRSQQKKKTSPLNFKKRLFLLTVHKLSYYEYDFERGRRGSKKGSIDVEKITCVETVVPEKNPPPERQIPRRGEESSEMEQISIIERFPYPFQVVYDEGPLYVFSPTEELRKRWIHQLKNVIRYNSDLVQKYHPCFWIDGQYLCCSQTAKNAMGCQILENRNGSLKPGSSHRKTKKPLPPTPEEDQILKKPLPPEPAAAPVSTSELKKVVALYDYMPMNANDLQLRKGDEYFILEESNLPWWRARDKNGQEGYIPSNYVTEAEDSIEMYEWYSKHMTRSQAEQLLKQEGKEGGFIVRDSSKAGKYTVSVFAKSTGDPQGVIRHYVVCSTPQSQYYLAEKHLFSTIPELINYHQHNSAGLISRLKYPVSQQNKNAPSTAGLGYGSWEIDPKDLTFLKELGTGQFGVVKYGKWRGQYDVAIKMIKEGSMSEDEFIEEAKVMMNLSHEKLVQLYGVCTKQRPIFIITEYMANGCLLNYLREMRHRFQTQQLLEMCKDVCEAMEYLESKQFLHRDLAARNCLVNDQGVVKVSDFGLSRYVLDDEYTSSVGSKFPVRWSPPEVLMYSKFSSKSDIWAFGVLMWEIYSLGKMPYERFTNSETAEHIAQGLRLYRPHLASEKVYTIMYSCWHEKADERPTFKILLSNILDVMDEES
T3 sequence (Q06187 whole entry T474I): as the sequence (Q06187 whole entry) above, with T474I counted along it
T1 sequence (Q06187 whole entry C481S): as the sequence (Q06187 whole entry) above, with C481S counted along it

Broadly, the IC50 is the point on the concentration scale where inhibition reaches its midpoint. As to `COc1ccc(F)cc1C(=O)NCc1ccc(-c2nc(C(C)C(F)(F)F)cc3[nH]nc(N)c23)cc1` (single isomer, unassigned) [Example 2, N-(4-(3-amino-6-(1,1,1-trifluoropropan-2-yl)-1H-pyrazolo[4,3-c]pyridin-4-yl)benzyl)-5-fluoro-2-methoxybenzamide], the IC50 is 1 to 5 nM on BTK C481S; 1 to 5 nM at BTK kinase; 50 to 500 nM at BTK T474I; 5 to 10 nM in the experiment on Ramos cells with BTK WT (Homo sapiens, Ramos).

For `COc1ccc(F)cc1C(=O)NCc1ccc(-c2nc(C(C)C(F)(F)F)cc3[nH]nc(N)c23)cc1` (single isomer, unassigned) [Example 3, N-(4-(3-amino-6-(1,1,1-trifluoropropan-2-yl)-1H-pyrazolo[4,3-c]pyridin-4-yl)benzyl)-5-fluoro-2-methoxybenzamide], the 50% inhibitory concentration (IC50) on BTK C481S was 1 to 5 nM; at BTK kinase, 1 to 5 nM; on BTK T474I, 50 to 500 nM; with Ramos cells with BTK WT, 5 to 10 nM.

`COc1ccc(F)cc1C(=O)NCc1ccc(-c2nc(C(C)C(F)(F)F)c(-c3ccn(C)n3)c3[nH]nc(N)c23)cc1` (single isomer, unassigned) [Example 6-1, N-(4-(3-amino-7-(1-methyl-1H-pyrazol-3-yl)-6-(1,1,1-trifluoropropan-2-yl)-1H-pyrazolo[4,3-c]pyridin-4-yl)benzyl)-5-fluoro-2-methoxybenzamide]: the concentration for half-maximal inhibition (IC50) is 1 to 5 nM on BTK C481S; 1 to 5 nM at BTK kinase; 5 to 50 nM at BTK T474I; at most 5 nM in the experiment with Ramos cells with BTK WT (Homo sapiens, Ramos).

Take `COc1ccc(F)cc1C(=O)NCc1ccc(-c2nc(C(C)C(F)(F)F)c(-c3ccn(C)n3)c3[nH]nc(N)c23)cc1` (single isomer, unassigned) [Example 6-2, N-(4-(3-amino-7-(1-methyl-1H-pyrazol-3-yl)-6-(1,1,1-trifluoropropan-2-yl)-1H-pyrazolo[4,3-c]pyridin-4-yl)benzyl)-5-fluoro-2-methoxybenzamide]: the half-inhibitory concentration (IC50) is 1 to 5 nM at BTK C481S, 1 to 5 nM at BTK kinase, 5 to 50 nM on BTK T474I and at most 5 nM in the experiment with Ramos cells with BTK WT.

As for `COc1ccc(F)cc1C(=O)NCc1ccc(-c2nc(C(C)C(F)(F)F)c(-c3ncccn3)c3[nH]nc(N)c23)cc1` (single isomer, unassigned) [Example 7-1, N-(4-(3-amino-7-(pyrimidin-2-yl)-6-(1,1,1-trifluoropropan-2-yl)-1H-pyrazolo[4,3-c]pyridin-4-yl)benzyl)-5-fluoro-2-methoxybenzamide], the concentration for half-maximal inhibition (IC50) on BTK C481S was 1 to 5 nM; on BTK kinase, 1 to 5 nM; at BTK T474I, 50 to 500 nM; in the experiment on Ramos cells with BTK WT (Homo sapiens, Ramos) it was at most 5 nM.

For the molecule `COc1ccc(F)cc1C(=O)NCc1ccc(-c2nc(C(C)C(F)(F)F)c(-c3ncccn3)c3[nH]nc(N)c23)cc1` (single isomer, unassigned) [Example 7-2, N-(4-(3-amino-7-(pyrimidin-2-yl)-6-(1,1,1-trifluoropropan-2-yl)-1H-pyrazolo[4,3-c]pyridin-4-yl)benzyl)-5-fluoro-2-methoxybenzamide], the IC50 lay within 1 to 5 nM on BTK C481S, 1 to 5 nM at BTK kinase, 50 to 500 nM at BTK T474I and 5 to 10 nM in the experiment with Ramos cells with BTK WT.

Consider `COc1ccc(F)cc1C(=O)NCc1ccc(-c2nc(C(C)C(F)(F)F)cc3[nH]nc(N)c23)cc1` (stereo not drawn) [Example 1, N-(4-(3-amino-6-(1,1,1-trifluoropropan-2-yl)-1H-pyrazolo[4,3-c]pyridin-4-yl)benzyl)-5-fluoro-2-methoxybenzamide], for which the IC50 on BTK C481S was 5 to 50 nM; at BTK kinase, 5 to 50 nM; at BTK T474I it was above 500 nM.

As to `COc1ccc(F)cc1C(=O)NCc1ccc(-c2nc(C(C)C(F)(F)F)c(-c3ccn(C)n3)c3[nH]nc(N)c23)cc1` (stereo not drawn) [Example 6, N-(4-(3-amino-7-(1-methyl-1H-pyrazol-3-yl)-6-(1,1,1-trifluoropropan-2-yl)-1H-pyrazolo[4,3-c]pyridin-4-yl)benzyl)-5-fluoro-2-methoxybenzamide], the 50% inhibitory concentration (IC50) on BTK C481S is 1 to 5 nM; at BTK kinase, 1 to 5 nM; at BTK T474I, 5 to 50 nM; with Ramos cells with BTK WT (Homo sapiens, Ramos), at most 5 nM.

For the molecule `COc1ccc(F)cc1C(=O)NCc1ccc(-c2nc(C(C)C(F)(F)F)c(-c3ncccn3)c3[nH]nc(N)c23)cc1` (stereo not drawn) [Example 7, N-(4-(3-amino-7-(pyrimidin-2-yl)-6-(1,1,1-trifluoropropan-2-yl)-1H-pyrazolo[4,3-c]pyridin-4-yl)benzyl)-5-fluoro-2-methoxybenzamide], the IC50 on BTK C481S fell in the range of 1 to 5 nM; on BTK kinase, 1 to 5 nM; at BTK T474I, 50 to 500 nM; with Ramos cells with BTK WT (Homo sapiens, Ramos), 5 to 10 nM.

For `COc1ccc(F)cc1C(=O)NCc1ccc(-c2nc(C(C)C(F)(F)F)c(-c3cc(C)[nH]n3)c3[nH]nc(N)c23)cc1` (stereo not drawn) [Example 9, N-(4-(3-amino-7-(5-methyl-1H-pyrazol-3-yl)-6-(1,1,1-trifluoropropan-2-yl)-1H-pyrazolo[4,3-c]pyridin-4-yl)benzyl)-5-fluoro-2-methoxybenzamide], the IC50 on BTK C481S was in the range of 5 to 50 nM; at BTK kinase it was 1 to 5 nM; on BTK T474I, 50 to 500 nM; in the experiment on Ramos cells with BTK WT (Homo sapiens, Ramos), 5 to 10 nM.

As to `COc1ccc(F)cc1C(=O)NCc1ccc(-c2ncc(-c3ccccn3)c3[nH]nc(N)c23)cc1` [Example 15, N-(4-(3-amino-7-(pyridin-2-yl)-1H-pyrazolo[4,3-c]pyridin-4-yl)benzyl)-5-fluoro-2-methoxybenzamide], the IC50 at BTK C481S is at most 1 nM; at BTK kinase, at most 1 nM; at BTK T474I it was 50 to 500 nM; in the experiment on Ramos cells with BTK WT (Homo sapiens, Ramos) it was 5 to 10 nM.

On to `COc1ccc(F)cc1C(=O)NCc1ccc(-c2ncc(-c3ncccn3)c3[nH]nc(N)c23)cc1` [Example 17, N-(4-(3-amino-7-(pyrimidin-2-yl)-1H-pyrazolo[4,3-c]pyridin-4-yl)benzyl)-5-fluoro-2-methoxybenzamide], for which the half-maximal inhibitory concentration (IC50) lay within 1 to 5 nM on BTK C481S; 1 to 5 nM on BTK kinase; 50 to 500 nM on BTK T474I; 5 to 10 nM in the experiment on Ramos cells with BTK WT (Homo sapiens, Ramos).

For `COc1ccc(F)cc1C(=O)NCc1ccc(-c2ncc(-c3cnccn3)c3[nH]nc(N)c23)cc1` [Example 18, N-(4-(3-amino-7-(pyrazin-2-yl)-1H-pyrazolo[4,3-c]pyridin-4-yl)benzyl)-5-fluoro-2-methoxybenzamide], the 50% inhibitory concentration (IC50) on BTK C481S lay within 1 to 5 nM; at BTK kinase, 5 to 50 nM; at BTK T474I, 50 to 500 nM; in the experiment with Ramos cells with BTK WT (Homo sapiens, Ramos), 10 to 50 nM.

For the molecule `COc1ccc(F)cc1C(=O)NCc1ccc(-c2ncc(-c3ccncn3)c3[nH]nc(N)c23)cc1` [Example 19], the IC50 on BTK C481S is 1 to 5 nM; on BTK kinase, 1 to 5 nM; at BTK T474I, 50 to 500 nM; in the experiment on Ramos cells with BTK WT (Homo sapiens, Ramos) it was 5 to 10 nM.

Turning to `COc1ccc(F)cc1C(=O)NCc1ccc(-c2ncc(-c3ccc(F)cn3)c3[nH]nc(N)c23)cc1` [Example 21, N-(4-(3-amino-7-(5-fluoropyridin-2-yl)-1H-pyrazolo[4,3-c]pyridin-4-yl)benzyl)-5-fluoro-2-methoxybenzamide], the IC50 on BTK C481S is 5 to 50 nM; at BTK kinase it was 1 to 5 nM; on BTK T474I, 50 to 500 nM; in the experiment on Ramos cells with BTK WT (Homo sapiens, Ramos) it was at most 5 nM.

With `COc1ccc(F)cc1C(=O)NCc1ccc(-c2ncc(-c3cnn(C)c3)c3[nH]nc(N)c23)cc1` [Example 22, N-(4-(3-amino-7-(1-methyl-1H-pyrazol-4-yl)-1H-pyrazolo[4,3-c]pyridin-4-yl)benzyl)-5-fluoro-2-oxybenzamide], the IC50 is 5 to 50 nM at BTK C481S; 5 to 50 nM on BTK kinase; 50 to 500 nM at BTK T474I; 10 to 50 nM in the experiment on Ramos cells with BTK WT (Homo sapiens, Ramos).
